Data on 39 compounds can be found in patent publication US20230357233A1, “HETEROARYL COMPOUNDS, PREPARATION METHODS AND USES THEREOF” (INVENTISBIO CO., LTD., priority 2020, published 2023).

SMILES strings stand for the structures.

Chain of Ba/F3_KRAS^G12D cells (P01116 whole entry G12D): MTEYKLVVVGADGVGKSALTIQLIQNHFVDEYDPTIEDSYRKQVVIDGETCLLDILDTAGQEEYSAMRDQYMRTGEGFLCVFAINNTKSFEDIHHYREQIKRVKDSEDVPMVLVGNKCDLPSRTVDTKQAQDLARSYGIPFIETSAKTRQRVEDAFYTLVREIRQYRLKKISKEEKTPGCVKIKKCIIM

This assay has as its target Ba/F3_KRAS^G12D cells (Homo sapiens, UniProt P01116, G12D, cells depend on it). The assay can be described thus: Ba/F3 KRAS^G12D cell proliferation assay (cell-titer Glo). In kind it is cell-based. The settings on record: cell growth inhibition, treated with the compounds for 3 days, read-out: BaF3_KRAS^G12D IC50. The method, then:
Cells were seeded at a density of 5×10^3 per well into 96-well plate and incubated overnight. Serial diluted compounds were added to each well. Cells were treated with the compounds for 3 days, after which cell-titer Glo reagent (Promega #G7572) was used to assess cell proliferation. The luminescence signal was then collected on Tecan Spark plate reader. […] Cell growth inhibition of IC50 is calculated with the equation of Y=Bottom+(Top−Bottom)/(1+10^((LogIC50−X)*HillSlope))
Consider `C#Cc1c(F)ccc2cc(O)cc(-c3c(F)c4nc(OC[C@@]56CCCN5C[C@H](F)C6)nc(N5CC6CCC(C5)N6)c4c4ncnn34)c12` (single isomer, unassigned) [Compound 155], for which the GI50 is less than 500 nM.
As to `C#Cc1c(F)ccc2cc(O)cc(-c3c(F)c4nc(OC[C@@]56CCCN5C[C@H](F)C6)nc(N5CC6CCC(C5)N6)c4c4ncnn34)c12` (single isomer, unassigned) [Compound 156], the GI50 is less than 500 nM.
`C#Cc1c(F)ccc2cc(O)cc(-c3ncc4c(N5CC6CCC(C5)N6)nc(OC[C@@]56CCCN5C[C@H](F)C6)nc4c3F)c12` [Compound 129]: the GI50 is less than 500 nM.
`CCc1c(F)ccc2cc(O)cc(-c3ncc4c(N5CC6CCC(C5)N6)nc(OC[C@@]56CCCN5C[C@H](F)C6)nc4c3F)c12` [Compound 140]: the GI50 was less than 500 nM.
In the case of `C#Cc1c(F)ccc2c(F)c(O)cc(-c3nc(C)c4c(N5CC6CCC(C5)N6)nc(OC[C@@]56CCCN5C[C@H](F)C6)nc4c3F)c12` [Compound 143], the GI50 is less than 500 nM.
Turning to `Cc1nc(-c2cc(O)cc3ccc(F)c(OC(F)F)c23)c(F)c2nc(OC[C@@]34CCCN3C[C@H](F)C4)nc(N3CC4CCC(C3)N4)c12` [Compound 144], the GI50 is less than 500 nM.
For the compound `CNC(=O)COc1nc(-c2cc(O)cc3ccccc23)c(F)c2nc(OC[C@@]34CCCN3C[C@H](F)C4)nc(N3CC4CCC(C3)N4)c12` [Compound 145], the GI50 was in the range of 500 to 5000 nM.
In the case of `CC#Cc1c(F)ccc2cc(O)cc(-c3nc(OC)c4c(N5CC6CCC(C5)N6)nc(OC[C@@]56CCCN5C[C@H](F)C6)nc4c3F)c12` [Compound 146], the GI50 is less than 500 nM.
`C#Cc1c(F)ccc2cc(O)cc(-c3nc(OC(C)C)c4c(N5CC6CCC(C5)N6)ncnc4c3F)c12` [Compound 150]: the GI50 is less than 500 nM.
With `CCc1c(F)ccc2c(F)c(O)cc(-c3nc(C)c4c(N5CC6CCC(C5)N6)nc(OC[C@@]56CCCN5C[C@H](F)C6)nc4c3F)c12` [Compound 151], the GI50 was more than 5000 nM.
In the case of `C#Cc1c(F)ccc2cc(O)cc(-c3nc(OCC(F)(F)F)c4c(N5CC6CCC(C5)N6)ncnc4c3F)c12` [Compound 153], the GI50 lay within 500 to 5000 nM.
As to `C#Cc1c(F)ccc2cccc(-c3nc(O)c4c(N5CC6CCC(C5)N6)nc(OC[C@@]56CCCN5C[C@H](F)C6)nc4c3F)c12` [Compound 154], the GI50 was 500 to 5000 nM.
In the case of `CCc1cccc2cc(N)cc(-c3nc(OC)c4c(N5CC6CCC(C5)N6)nc(OC[C@@]56CCCN5C[C@H](F)C6)nc4c3F)c12` [Compound 157], the GI50 was less than 500 nM.
In the case of `C#Cc1c(F)ccc2cc(N)cc(-c3nc(Cl)c4c(N5CC6CCC(C5)N6)nc(OC[C@@]56CCCN5C[C@H](F)C6)nc4c3F)c12` [Compound 158], the GI50 is less than 500 nM.
As to `C#Cc1c(F)ccc2cc(O)cc(-c3nc(OC)c4c(N5CC6CCC(C5)N6)ncnc4c3F)c12` [Compound 161], the GI50 was less than 500 nM.
On to `C#Cc1c(F)ccc2cc(O)cc(-c3nc(OC)c4c(N5CC6CCC(C5)N6)nc(OC)nc4c3F)c12` [Compound 162], for which the GI50 is less than 500 nM.
In the case of `CCc1c(F)ccc2cc(N)cc(-c3nc(OC)c4c(N5CC6CCC(C5)N6)nc(OC[C@@]56CCCN5C[C@H](F)C6)nc4c3F)c12` [Compound 164], the GI50 was less than 500 nM.
For `Oc1cc(-c2nc(C(F)F)c3c(N4CC5CCC(C4)N5)nc(OC[C@@]45CCCN4C[C@H](F)C5)nc3c2F)c2c(Cl)c(F)ccc2c1` [Compound 167], the GI50 is less than 500 nM.
Turning to `C#Cc1c(F)ccc2cccc(-c3nc(OCC)c4c(N5CC6CCC(C5)N6)nc(OC[C@@]56CCCN5C[C@H](F)C6)nc4c3F)c12` [Compound 168], the GI50 was less than 500 nM.
For the compound `C#Cc1c(F)ccc2cc(O)cc(-c3nc(OCC)c4c(N5CC6CCC(C5)O6)nc(OC[C@@]56CCCN5C[C@H](F)C6)nc4c3F)c12` [Compound 169], the GI50 is less than 500 nM.
In the case of `C#Cc1c(F)ccc2cc(O)cc(-c3nc(C(F)(F)F)c4c(N5CC6CCC(C5)N6)nc(OC[C@@]56CCCN5C[C@H](F)C6)nc4c3F)c12` [Compound 170], the GI50 is less than 500 nM.
As for `C#Cc1c(F)ccc2cc(O)cc(-c3nc(OCC)c4c(N5CCNC6(CCC6)C5)nc(OC[C@@]56CCCN5C[C@H](F)C6)nc4c3F)c12` [Compound 172], the GI50 was less than 500 nM.
In the case of `Oc1cc(-c2nc(O)c3c(N4CC5CCC(C4)N5)nc(OC[C@@]45CCCN4C[C@H](F)C5)nc3c2F)c2c(Cl)c(F)ccc2c1` [Compound 174], the GI50 is 500 to 5000 nM.
With `C#Cc1c(F)ccc2cc(O)cc(-c3nc(OC)c4c(N5CC6CCC(C5)N6)nc(OC[C@@]56CCCN5[C@H](COC(=O)N(C)C)CC6)nc4c3F)c12` [Compound 175], the GI50 was less than 500 nM.
Take `C#Cc1c(F)ccc2cc(O)cc(-c3nc(OC)c4c(N5CC6CCC(C5)N6)nc(OC[C@@]56CCCN5[C@@H](COC(=O)N(C)C)CC6)nc4c3F)c12` [Compound 177]: the GI50 is less than 500 nM.
With `C#Cc1c(F)ccc2cc(O)cc(-c3nc(OC)c4c(N5CC6CCC(C5)N6)nc(OC[C@]56CCCN5[C@H](COC(=O)N(C)C)CC6)nc4c3F)c12` [Compound 178], the GI50 is less than 500 nM.
`C#Cc1c(F)ccc2cc(O)cc(-c3nc(OCC(F)F)c4c(N5CC6CCC(C5)N6)nc(OC[C@@]56CCCN5C[C@H](F)C6)nc4c3F)c12` [Compound 180]: the GI50 was less than 500 nM.
Take `C#Cc1c(F)ccc2cc(O)cc(-c3nc(C4CC4)c4c(N5CC6CCC(C5)N6)nc(OC[C@@]56CCCN5C[C@H](F)C6)nc4c3F)c12` [Compound 181]: the GI50 was less than 500 nM.
In the case of `C#Cc1c(F)ccc2cc(O)cc(-c3nc(OC)c4c(N5CC6CCC(C5)N6)nc(OCC5(CN(C)C)CC5)nc4c3F)c12` [Compound 182], the GI50 is less than 500 nM.
Regarding `C#Cc1c(F)ccc2cc(O)cc(-c3nc(OC)c4c(N5CC6CCC(C5)N6)nc(OCC5(CN6CCCC6)CC5)nc4c3F)c12` [Compound 183], the GI50 is less than 500 nM.
With `C#Cc1c(F)ccc2cc(O)cc(-c3nc(OC)c4c(N5CC6CCC(C5)N6)nc(OCC5(CN6CCC6)CC5)nc4c3F)c12` [Compound 184], the GI50 is less than 500 nM.
For `C#Cc1c(F)ccc2cc(O)cc(-c3nc(OC)c4c(N5CC6CCC(C5)N6)nc(OCC5(CN6CCOCC6)CC5)nc4c3F)c12` [Compound 185] the value was less than 500 nM.
The result for `C#Cc1c(F)ccc2cc(O)cc(-c3nc(OC(C)C)c4c(N5CC6CCC(C5)N6)nc(NC)nc4c3F)c12` [Compound 186] reads 500 to 5000 nM; that for `C#Cc1c(F)ccc2cc(O)cc(-c3nc(O)c4c(N5CC6CCC(C5)N6)nc(NC)nc4c3F)c12` [Compound 187], 500 to 5000 nM.
`C#Cc1c(F)ccc2cc(O)cc(-c3nc(OC(C)C)c4c(N5CC6CCC(C5)N6)nc(N)nc4c3F)c12` [Compound 188]: the GI50 lay within 500 to 5000 nM.
On to `C#Cc1c(F)ccc2cc(O)cc(-c3nc(OC(C)C)c4c(N5CC6CCC(C5)N6)nc(N(C)C)nc4c3F)c12` [Compound 189], for which the GI50 is 500 to 5000 nM.
For `C#Cc1c(F)ccc2cc(O)cc(-c3nc(OC(C)C)c4c(N5CC6CCC(C5)N6)nc(C(F)F)nc4c3F)c12` [Compound 190] the value was less than 500 nM; for `C#Cc1c(F)ccc2cc(O)cc(-c3nc(OC(C)C)c4c(N5CC6CCC(C5)N6)nc(OC)nc4c3F)c12` [Compound 191], less than 500 nM; for `C#Cc1c(F)ccc2cc(O)cc(-c3nc(OC(C)C)c4c(N5CC6CCC(C5)N6)nc(OCCOC)nc4c3F)c12` [Compound 192], less than 500 nM.
